Results taken from ChEMBL document CHEMBL2074285, “Characterization of the drug resistance and transport properties of multidrug resistance protein 6 (MRP6, ABCC6)” (Cancer Res, 2002).
Numbered stars: 1 amine (or outer) side, 2 acyl side, 3 side chain; on linkers, the order of the positions; unused ones are H or OH. Bridge positions count the residues as written; N and C are the ends. Square brackets hold non-standard residues; d marks the D form. Peptide text beside a SMILES is read from it. I, II: the chains in the order shown. Actinocin(9to1) = Cc1c2oc3c(C)ccc(C(=O)[*:1])c3nc-2c(C(=O)[*:2])c(N)c1=O; NMeV = CN[C@H](C(=O)O)C(C)C; Sar = CNCC(=O)O

molecular target: T1, ATP-binding cassette sub-family C member 6 (Homo sapiens, UniProt O95255); experiment: TP_TRANSPORTER: drug resistance in MRP6-expressing CHO cells; type: functional, cell-based; conditions: hamster
T1 sequence (O95255 whole entry): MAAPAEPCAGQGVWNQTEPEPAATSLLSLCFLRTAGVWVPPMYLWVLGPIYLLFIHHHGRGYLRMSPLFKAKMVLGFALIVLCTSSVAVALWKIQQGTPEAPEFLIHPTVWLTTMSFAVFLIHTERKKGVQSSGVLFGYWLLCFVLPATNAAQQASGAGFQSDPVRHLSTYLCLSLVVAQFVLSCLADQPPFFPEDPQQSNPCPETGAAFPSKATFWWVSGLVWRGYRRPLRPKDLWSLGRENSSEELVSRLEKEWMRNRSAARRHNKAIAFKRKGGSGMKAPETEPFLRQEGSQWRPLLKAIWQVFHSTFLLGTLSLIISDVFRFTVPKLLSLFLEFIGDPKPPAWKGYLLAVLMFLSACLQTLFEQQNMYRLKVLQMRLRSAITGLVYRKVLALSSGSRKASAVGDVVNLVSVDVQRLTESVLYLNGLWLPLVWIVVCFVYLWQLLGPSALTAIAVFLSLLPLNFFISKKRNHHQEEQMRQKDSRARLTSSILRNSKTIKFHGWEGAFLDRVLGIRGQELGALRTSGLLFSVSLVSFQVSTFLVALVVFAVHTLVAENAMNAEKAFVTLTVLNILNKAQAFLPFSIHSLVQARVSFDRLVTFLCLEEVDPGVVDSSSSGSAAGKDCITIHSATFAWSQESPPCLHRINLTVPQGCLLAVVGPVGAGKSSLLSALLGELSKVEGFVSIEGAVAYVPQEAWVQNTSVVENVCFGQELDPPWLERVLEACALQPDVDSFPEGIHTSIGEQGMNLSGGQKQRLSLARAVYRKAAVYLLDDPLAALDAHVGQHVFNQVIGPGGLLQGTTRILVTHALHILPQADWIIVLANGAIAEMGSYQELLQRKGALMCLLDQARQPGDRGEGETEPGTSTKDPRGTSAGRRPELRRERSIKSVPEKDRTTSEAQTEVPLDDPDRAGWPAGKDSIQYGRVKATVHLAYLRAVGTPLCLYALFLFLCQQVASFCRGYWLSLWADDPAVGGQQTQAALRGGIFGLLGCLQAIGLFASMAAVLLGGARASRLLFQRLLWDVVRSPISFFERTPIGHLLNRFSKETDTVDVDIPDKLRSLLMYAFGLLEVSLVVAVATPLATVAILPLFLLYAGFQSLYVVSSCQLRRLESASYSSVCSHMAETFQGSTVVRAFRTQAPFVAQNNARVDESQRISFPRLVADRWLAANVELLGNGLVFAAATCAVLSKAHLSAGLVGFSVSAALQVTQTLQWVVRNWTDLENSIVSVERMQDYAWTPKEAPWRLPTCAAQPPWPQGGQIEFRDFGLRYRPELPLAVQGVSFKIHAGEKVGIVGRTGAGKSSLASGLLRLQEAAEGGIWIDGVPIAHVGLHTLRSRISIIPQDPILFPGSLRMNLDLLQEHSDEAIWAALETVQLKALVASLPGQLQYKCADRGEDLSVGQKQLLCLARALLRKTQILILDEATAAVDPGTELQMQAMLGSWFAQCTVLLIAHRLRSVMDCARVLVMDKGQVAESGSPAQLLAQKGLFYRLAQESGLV

Row | Compound | Activity
1 | Cc1c2oc3c(C)ccc(C(=O)N[C@@H]4C(=O)N[C@H](C(C)C)C(=O)N5CCC[C@H]5C(=O)N(C)CC(=O)N(C)[C@@H](C(C)C)C(=O)O[C@@H]4C)c3nc-2c(C(=O)N[C@@H]2C(=O)N[C@H](C(C)C)C(=O)N3CCC[C@H]3C(=O)N(C)CC(=O)N(C)[C@@H](C(C)C)C(=O)O[C@@H]2C)c(N)c1=O [DACTINOMYCIN] (I: T[dV]P[Sar][NMeV] / II: T[dV]P[Sar][NMeV]; ester I:1-I:C, II:1-II:C; linker I:N-II:N via Actinocin(9to1)) | substrate []
2 | COc1cccc2c1C(=O)c1c(O)c3c(c(O)c1C2=O)C[C@@](O)(C(C)=O)C[C@@H]3O[C@H]1C[C@H](N)[C@H](O)[C@H](C)O1 [DAUNORUBICIN] | substrate []
3 | COc1cccc2c1C(=O)c1c(O)c3c(c(O)c1C2=O)C[C@@](O)(C(=O)CO)C[C@@H]3O[C@H]1C[C@H](N)[C@H](O)[C@H](C)O1 [DOXORUBICIN] | substrate []
4 | COc1cc([C@@H]2c3cc4c(cc3[C@@H](O[C@@H]3O[C@@H]5CO[C@@H](C)O[C@H]5[C@H](O)[C@H]3O)[C@H]3COC(=O)[C@H]23)OCO4)cc(OC)c1O [ETOPOSIDE] | substrate []
5 | COc1cc([C@@H]2c3cc4c(cc3[C@@H](O[C@@H]3O[C@@H]5CO[C@@H](c6cccs6)O[C@H]5[C@H](O)[C@H]3O)[C@H]3COC(=O)[C@H]23)OCO4)cc(OC)c1O [TENIPOSIDE] | substrate []
6 | CISPLATIN | substrate []

molecular target: T1, ATP-binding cassette sub-family C member 6; experiment: TP_TRANSPORTER: uptake in membrane vesicle from MRP6-expressing CHO cells; type: functional, cell membranes; conditions: hamster

Row | Compound | Activity
7 | N[C@@H](CCC(=O)N[C@H](CSc1ccc([N+](=O)[O-])cc1[N+](=O)[O-])C(=O)NCC(=O)O)C(=O)O | substrate [+]
8 | CC(C)C[C@@H]1NC(=O)[C@@H](C(C)C)NC(=O)[C@@H]2CCCN2C(=O)[C@@H](CC(=O)O)NC(=O)[C@@H](Cc2c[nH]c3ccccc23)NC1=O [BQ-123] (HELM PEPTIDE1{L.[dW].[dD].P.[dV]}$PEPTIDE1,PEPTIDE1,1:R1-5:R2$$$V2.0) | substrate [+]
9 | CCCCC/C=C\C\C=C/C=C/C=C/[C@@H](SC[C@@H](NC(=O)CC[C@H](N)C(=O)O)C(=O)NCC(=O)O)[C@@H](O)CCCC(=O)O [LEUKOTRIEN C4] | substrate [+]
